# How the values were obtained:
# blood plasma of rats = assay: Concentration of dopamine, its metabolites, 5-HT and 5-HIAA in the blood plasma of benserazide-pretreated rats; assay type: in vivo, rat; details: for 3-MT concentration in blood plasma (MV) / 5-HIAA concentration in blood plasma (MV) / 5-HT concentration in blood plasma (MV) / Dopac concentration in blood plasma (MV) / Dopamine concentration in blood plasma (MV) / HVA concentration in blood plasma (MV): 30 min after benserazide, blood 90 min later
# Method: (§1) The rats were pretreated with benserazide, an inhibitor of the aromatic amino acid decarboxylase, in order to reduce the degradation of the test compounds in the blood and to thus provide sufficient concentration of dopamine and α-lipoic acid in the brain. After 30 minutes, L-DOPA (standard therapy for Parkinson's disease) or compound 1, compound 2, compound 3 in doses equivalent to L-DOPA were injected into the peritoneum (intraperitoneal, ip). After a further 90 minutes, blood and brain tissue (striatum) were extracted. A lower dose (25 mg/kg body weight) and a higher dose (50 mg/kg body weight) of L-DOPA were selected.
# [1] = tested on: nucleus accumbens of a freely moving rat; assay: In vivo microdialysis of dopamine release in the nucleus accumbens of the freely moving rat
# Method: The arrow indicates the moment of injection (ip: intraperitoneal) of L-DOPA (25 mg/kg body weight) 30 minutes after the administration of benserazide (10 mg/kg body weight, ip).
# The arrow indicates the moment of injection (ip: intraperitoneal) of L-DOPA (50 mg/kg body weight) 30 minutes after the administration of benserazide (10 mg/kg body weight, ip, in 0.9% NaCl).
# The arrow indicates the moment of injection (ip: intraperitoneal) of diacetyl-DOPA-ethylene glycol α-lipoic acid (equimolar dose to 25 mg/kg body weight L-DOPA) 30 minutes after the administration of benserazide (10 mg/kg body weight, ip in 0.9% NaCl).
# The arrow indicates the moment of injection (ip: intraperitoneal) of diacetyl-DOPA-ethylene glycol α-lipoic acid (equimolar dose to 50 mg/kg body weight L-DOPA) 30 minutes after the administration of benserazide (10 mg/kg body weight, ip).
# Furthermore, by the method of in vivo micro dialysis of the conscious and freely moving rat, experiments were carried out to test whether the production and release of dopamine in the nucleus accumbens, a part of the brain with dense innervation of dopamine-containing nerve cells, is increased upon administration of L-DOPA or compound 1. The advantage of said method consists in the fact that the time-course of the release of the messenger dopamine from the active nerve cells can be observed in the conscious and freely moving rat. […] Said strong increase and the high concentrations are not desired since several degradation products of dopamine and the oxygen radicals formed during the degradation of dopamine have damaging effects on nerve cells.
# [2] = tested on: brain (striatum) of the rat; assay: Concentration of dopamine, its metabolites, 5-HT and 5-HIAA in the striatum of benserazide-pretreated rats; assay type: in vivo; details: for 3-MT concentration in striatum (MV) / 5-HIAA concentration in striatum (MV) / 5-HT concentration in striatum (MV) / Dopac concentration in striatum (MV) / Dopamine concentration in striatum (MV) / HVA concentration in striatum (MV): 30 min after benserazide, tissue 90 min later
# Method: as §1
# [3] = 25 mg/kg L-DOPA or L-DOPA eq. ip
# [4] = 50 mg/kg L-DOPA or L-DOPA eq. ip
# [5] = low doses (25 mg/kg L-DOPA eq.)
smiles,measurement,setting,value
"CC(=O)Oc1ccc(C[C@H](N)C(=O)OCCOC(=O)CCCCC2CCSS2)cc1OC(C)=O (stereo partly drawn) [compound 1, O,O′-diacetyl-L-DOPA-ethylene glycol lipoic acid ester]",3-MT concentration in blood plasma (MV),blood plasma of rats; [3],8563 pg per ml plasma
same,5-HIAA concentration in blood plasma (MV),blood plasma of rats; [3],13852 pg per ml plasma
same,5-HT concentration in blood plasma (MV),blood plasma of rats; [3],8894 pg per ml plasma
same,Dopac concentration in blood plasma (MV),blood plasma of rats; [3],57257 pg per ml plasma
same,Dopamine concentration in blood plasma (MV),blood plasma of rats; [3],29782 pg per ml plasma
same,HVA concentration in blood plasma (MV),blood plasma of rats; [3],16836 pg per ml plasma
same,3-MT concentration in blood plasma (MV),blood plasma of rats; [4],6288 pg per ml plasma
same,5-HIAA concentration in blood plasma (MV),blood plasma of rats; [4],15367 pg per ml plasma
same,5-HT concentration in blood plasma (MV),blood plasma of rats; [4],12094 pg per ml plasma
same,Dopac concentration in blood plasma (MV),blood plasma of rats; [4],58266 pg per ml plasma
same,Dopamine concentration in blood plasma (MV),blood plasma of rats; [4],22129 pg per ml plasma
same,HVA concentration in blood plasma (MV),blood plasma of rats; [4],71658 pg per ml plasma
same,Formation of dopamine in the blood plasma (in words),blood plasma of rats; low and higher doses,Dopamine is also formed
same,Dose dependence of dopamine release in nucleus accumbens (in words),"[1]; 25 and 50 mg/kg L-DOPA or equimolar doses, FIGS. 1-4",released in a dose-dependent manner
same,Time-course of dopamine concentration in nucleus accumbens microdialysate (in words),"[1]; ip, 30 min after benserazide, L-DOPA: higher dose (FIG. 1), compound 1: FIGS. 3 and 4",two-peak-maximum and a less steep increase as well as a longer lasting effect
same,3-MT concentration in striatum (MV),[2]; [3],308 pg per mg striatum
same,5-HIAA concentration in striatum (MV),[2]; [3],706 pg per mg striatum
same,5-HT concentration in striatum (MV),[2]; [3],355 pg per mg striatum
same,Dopac concentration in striatum (MV),[2]; [3],4532 pg per mg striatum
same,Dopamine concentration in striatum (MV),[2]; [3],11244 pg per mg striatum
same,HVA concentration in striatum (MV),[2]; [3],2567 pg per mg striatum
same,3-MT concentration in striatum (MV),[2]; [4],194 pg per mg striatum
same,5-HIAA concentration in striatum (MV),[2]; [4],764 pg per mg striatum
same,5-HT concentration in striatum (MV),[2]; [4],411 pg per mg striatum
same,Dopac concentration in striatum (MV),[2]; [4],9549 pg per mg striatum
same,Dopamine concentration in striatum (MV),[2]; [4],11695 pg per mg striatum
same,HVA concentration in striatum (MV),[2]; [4],4314 pg per mg striatum
same,Effect on the metabolites DOPAC and HVA in striatum (in words),[2]; higher doses (50 mg/kg L-DOPA eq.),increased
same,Effect on the concentrations of dopamine in striatum (in words),[2]; [5],do not lead to an increase
same,Effect on the metabolites DOPAC and HVA in striatum (in words),[2]; [5],increased
